Where a SMILES comes first, the peptide text is derived from it. [ ]: non-standard residue; d: D form. The star is where a group is joined. Palmitoyl = CCCCCCCCCCCCCCCC(=O)*
Test system: MCF-7 breast cancer cells
Experiment: MTT cell toxicity assay in MCF-7 breast cancer cells
Type: cell-based
Settings: for improvement of potency: N-terminal truncation, relative to peptide 12/3; for GI50 / TGI / growth inhibition / potency in MCF-7 cells (in words): MCF-7 cells, MTT; for GI50 / TGI: final 0.5% FBS, two days with compound; for TGI: concentration of total growth inhibition (cytostatic); for growth inhibition / potency in MCF-7 cells (in words): comparison with related peptides
Experimental: Cell Toxicity Assays: MCF-7 (breast cancer), T47D (breast cancer), Colo 205 (colon cancer), JM-1 (rat hepatoma), Sk Me1-2 (melanoma), PLC (human hepatoma), and HepG2 (human hepatoma) cells were obtained from American Type Cell Culture Collection. MCF-7 cells were grown in RPMI medium supplemented with 10% Fetal Bovine Serum. The rest of the cell lines were grown in DMEM medium supplemented with 10% Fetal Bovine Serum.
MTT 43-(4,5-Dimethylthiazol-2-yl)-2,5-diphenyltetrazolium) cell assay was performed using MCF-7 breast cancer cells. For the assay, cells were seeded into 96 well plates in medium containing 1% Fetal Bovine Serum and 100 μL of a cell suspension containing 5000 cells per well. Wells containing medium-only, and wells containing untreated cells, served as controls.
Seeded cells were allowed to attach and grow in the wells for 24 hours. A 5 mM stock solution of each peptide was made by dissolving approximately 1 mg of peptide in appropriate amount of DMSO. 2 mL dilutions were used to make 0.2 μM, 1.0 μM, 5.0 μM, and 10.0 μM concentration solutions of the compounds in serum-free medium. 100 μl, of the resulting 2× solutions were added to the corresponding wells to provide a final FBS concentration of 0.5% and 0.1 μM, 0.5 μM, 2.5 μM, and 5.0 μM dilutions of inhibitors. The cells were incubated with test compounds for two days. The control wells were given 100 μL of medium to ensure maximum similarity to the test wells so that all of the wells had 200 μL of medium during the growth period. An individual plate was made for Time Zero, to which the dye was added at the time of addition of compounds.
An alternative potency assay was used to test compounds in MCF-7 (breast cancer), T47D (breast cancer), Colo 205 (colon cancer), JM-1 (rat hepatoma), Sk MeI-2 (melanoma), PLC (human hepatoma), and HepG2 (human hepatoma) cells. Cells were suspended at a concentration of approximately 5000 cells per 100 μL of suspension in a 5% FBS RPMI medium. The cells were seeded into 96-count wells and incubated over night. After one day's incubation, the 5% FBS medium was aspirated and replaced with 100 μL of no serum RPMI medium containing 1 mg Bovine Serum Albumin (BSA) per 1 mL RPMI. Various concentrations of the test compounds were prepared by dilution in no-serum medium containing 1 mg BSA/mL. 75 μL of the test compound solutions were added to the wells, and the cells were allowed to incubate for 15-20 minutes, after which time 25 μL of human recombinant IGF-1 (Peprotech) solution was added to the wells to attain final concentrations of 10 ng IGF-1/mL medium. The control wells were given 175 μL of no-serum medium in addition to 25 μL of IGF-1 solution. An individual plate was made for time zero, in which the medium was also aspirated and replaced with 175 μL of no-serum medium and 25 μL of IGF-1. 15 μL of MTT dye was added and let incubate for 4 hours, after which time a stop stop solubilization solution was added. The stop solution lysed the cells and released the dye reduced by the remaining living cells. Absorbance of the wells at 544 nm was determined by a FLUOstar/POLARstar Galaxy (BMG Lab Technologies GmbH) microplate reader. The activity was calculated from the data using the formula: 100×[(T−T0)/(C−T0)] for T>T0 and 100×[(T−T0)/T0] for T<T0, wherein T0 corresponds to cell density at the time of drug addition, “T” is the optical density of the test well after a 48-h period of exposure to test drug, and “C” is the control optical density. The GI50 measures the growth inhibitory power of the test agent, and is defined as the concentration of test drug where 100×(T−T0)/(C−T0)=50. The TGI is the concentration of test drug where 100×(T−T0)/(C−T0)=0. Thus, the TGI signifies a cytostatic effect.

Structure (SMILES) | improvement of potency (MCF-7) | increase in toxicity (MCF-7, relative to peptide 3) [fold] | GI50 [nM] | TGI [nM] | growth inhibition / potency in MCF-7 cells (in words)
CCCCCCCCCCCCCCCC(=O)N[C@@H](CCCCN)C(=O)N[C@@H](CCCNC(=N)N)C(=O)N[C@@H](CC(N)=O)C(=O)N[C@@H](CC(N)=O)C(=O)N[C@@H](CO)C(=O)N[C@@H](CCCNC(=N)N)C(=O)N[C@@H](CC(C)C)C(=O)NCC(=O)N[C@@H](CC(N)=O)C(=O)NCC(=O)N[C@H](C(=O)N[C@@H](CC(C)C)C(=O)N[C@@H](Cc1ccc(O)cc1)C(=O)N[C@@H](C)C(=O)N[C@@H](CO)C(=O)N[C@H](C(=O)N[C@@H](CC(N)=O)C(N)=O)C(C)C)C(C)C [Peptide 13, Pal-KRNNSRLGNGVLYASVN-NH2] (Palmitoyl-KRNNSRLGNGVLYASVN-NH2) | more than ten-fold | 12.5 | 80 ± 7 | 500 ± 80 | 
CCCCCCCCCCCCCCCC(=O)N[C@@H](Cc1c[nH]cn1)C(=O)N[C@@H](CCCNC(=N)N)C(=O)N[C@@H](CCCCN)C(=O)N[C@@H](CCCNC(=N)N)C(=O)N[C@@H](CC(N)=O)C(=O)N[C@@H](CC(N)=O)C(=O)N[C@@H](CO)C(=O)N[C@@H](CCCNC(=N)N)C(=O)N[C@@H](CC(C)C)C(=O)NCC(=O)N[C@@H](CC(N)=O)C(=O)NCC(=O)N[C@H](C(N)=O)C(C)C [Peptide 11, Pal-HRKRNNSRLGNGV-NH2] (Palmitoyl-HRKRNNSRLGNGV-NH2) |  |  | 2500 ± 100 | >5000 | 
CCCCCCCCCCCCCCCC(=O)N[C@@H](CC(N)=O)C(=O)N[C@@H](CO)C(=O)N[C@@H](CCCNC(=N)N)C(=O)N[C@@H](CC(C)C)C(=O)NCC(=O)N[C@@H](CC(N)=O)C(=O)NCC(=O)N[C@H](C(=O)N[C@@H](CC(C)C)C(=O)N[C@@H](Cc1ccc(O)cc1)C(N)=O)C(C)C [Peptide 17, Pal-NSRLGNGVLY-NH2] (Palmitoyl-NSRLGNGVLY-NH2) |  |  | 200 ± 10 | 1500 ± 100 | gradual reduction in potency
CCCCCCCCCCCCCCCC(=O)N[C@H](C(=O)N[C@@H](Cc1c[nH]cn1)C(=O)N[C@@H](CCCNC(=N)N)C(=O)N[C@@H](CCCCN)C(=O)N[C@@H](CCCNC(=N)N)C(=O)N[C@@H](CC(N)=O)C(=O)N[C@@H](CC(N)=O)C(=O)N[C@@H](CO)C(=O)N[C@@H](CCCNC(=N)N)C(=O)N[C@@H](CC(C)C)C(=O)NCC(=O)N[C@@H](CC(N)=O)C(=O)NCC(=O)N[C@H](C(=O)N[C@@H](CC(C)C)C(=O)N[C@@H](Cc1ccc(O)cc1)C(=O)N[C@@H](C)C(=O)N[C@@H](CO)C(=O)N[C@H](C(N)=O)C(C)C)C(C)C)C(C)C [Peptide 6, Pal-VHRKRNNSRLGNGVLYASV-NH2] (Palmitoyl-VHRKRNNSRLGNGVLYASV-NH2) |  |  | 250 ± 30 | 1050 ± 100 | 
CCCCCCCCCCCCCCCC(=O)N[C@@H](C(=O)N[C@H](CO)C(=O)N[C@H](C)C(=O)N[C@H](Cc1ccc(O)cc1)C(=O)N[C@H](CC(C)C)C(=O)N[C@@H](C(=O)NCC(=O)N[C@H](CC(N)=O)C(=O)NCC(=O)N[C@H](CC(C)C)C(=O)N[C@H](CCCNC(=N)N)C(=O)N[C@H](CO)C(=O)N[C@H](CC(N)=O)C(=O)N[C@H](CC(N)=O)C(=O)N[C@H](CCCNC(=N)N)C(N)=O)C(C)C)C(C)C [Peptide 21, Pal-VSAYLVGNGLRSNNR-NH2] (Palmitoyl-[dV][dS][dA][dY][dL][dV]G[dN]G[dL][dR][dS][dN][dN][dR]-NH2) |  |  |  | 100 ± 5 | did not improve or diminish the inhibitory activity
CCCCCCCCCCCCCCCC(=O)N[C@@H](CO)C(=O)N[C@@H](CCCNC(=N)N)C(=O)N[C@@H](CC(C)C)C(=O)NCC(=O)N[C@@H](CC(N)=O)C(=O)NCC(=O)N[C@H](C(=O)N[C@@H](CC(C)C)C(=O)N[C@@H](Cc1ccc(O)cc1)C(N)=O)C(C)C [Peptide 19, Pal-SRLGNGVLY-NH2] (Palmitoyl-SRLGNGVLY-NH2) |  |  | 150 ± 50 | 2000 ± 100 | gradual reduction in potency
CCCCCCCCCCCCCCCC(=O)N[C@H](C(=O)N[C@@H](Cc1ccccc1)C(=O)N[C@@H](Cc1c[nH]cn1)C(=O)N[C@@H](CCCNC(=N)N)C(=O)N[C@@H](CCCCN)C(=O)N[C@@H](CCCNC(=N)N)C(=O)N[C@@H](CC(N)=O)C(=O)N[C@@H](CC(N)=O)C(=O)N[C@@H](CO)C(=O)N[C@@H](CCCNC(=N)N)C(=O)N[C@@H](CC(C)C)C(=O)NCC(=O)N[C@@H](CC(N)=O)C(=O)NCC(=O)N[C@H](C(=O)N[C@@H](CC(C)C)C(=O)N[C@@H](Cc1ccc(O)cc1)C(=O)N[C@@H](C)C(=O)N[C@@H](CO)C(=O)N[C@H](C(=O)N[C@@H](CC(N)=O)C(N)=O)C(C)C)C(C)C)C(C)C [Peptide 24] (Palmitoyl-VFHRKRNNSRLGNGVLYASVN-NH2) |  |  | 100 ± 50 | 1100 ± 100 | 
CCCCCCCCCCCCCCCC(=O)N[C@@H](CCCNC(=N)N)C(=O)N[C@@H](CC(N)=O)C(=O)N[C@@H](CC(N)=O)C(=O)N[C@@H](CO)C(=O)N[C@@H](CCCNC(=N)N)C(=O)N[C@@H](CC(C)C)C(=O)NCC(=O)N[C@@H](CC(N)=O)C(=O)NCC(=O)N[C@H](C(=O)N[C@@H](CC(C)C)C(=O)N[C@@H](Cc1ccccc1)C(N)=O)C(C)C [Peptide 29, Pal-RNNSRLGNGVLF-NH2] (Palmitoyl-RNNSRLGNGVLF-NH2) |  |  | 100 ± 5 | 1200 ± 50 | 
CCCCCCCCCCCCCCCC(=O)N[C@@H](Cc1c[nH]cn1)C(=O)N[C@@H](CCCNC(=N)N)C(=O)N[C@@H](CCCCN)C(=O)N[C@@H](CCCNC(=N)N)C(=O)N[C@@H](CC(N)=O)C(=O)N[C@@H](CC(N)=O)C(=O)N[C@@H](CO)C(=O)N[C@@H](CCCNC(=N)N)C(=O)N[C@@H](CC(C)C)C(=O)NCC(=O)N[C@@H](CC(N)=O)C(=O)NCC(=O)N[C@H](C(=O)N[C@@H](CC(C)C)C(=O)N[C@@H](Cc1ccc(O)cc1)C(=O)N[C@@H](C)C(=O)N[C@@H](CO)C(=O)N[C@H](C(=O)N[C@@H](CC(N)=O)C(=O)N1CCC[C@H]1C(=O)N[C@@H](CCC(=O)O)C(=O)N[C@@H](Cc1ccc(O)cc1)C(=O)N[C@@H](Cc1ccccc1)C(=O)N[C@@H](CO)C(=O)N[C@@H](C)C(=O)N[C@@H](C)C(N)=O)C(C)C)C(C)C [Peptide 4] (Palmitoyl-HRKRNNSRLGNGVLYASVNPEYFSAA-NH2) |  |  | 1000 ± 50 | >5000 | 
CCCCCCCCCCCCCCCC(=O)N[C@@H](CCCNC(=N)N)C(=O)N[C@@H](CC(N)=O)C(=O)N[C@@H](CC(N)=O)C(=O)N[C@@H](CO)C(=O)N[C@@H](CCCNC(=N)N)C(=O)N[C@@H](CC(C)C)C(=O)NCC(=O)N[C@@H](CC(N)=O)C(=O)NCC(=O)N[C@H](C(=O)N[C@@H](CC(C)C)C(=O)N[C@@H](Cc1ccc(O)cc1)C(=O)N[C@@H](C)C(=O)N[C@@H](CO)C(=O)N[C@H](C(=O)N[C@@H](CC(N)=O)C(N)=O)C(C)C)C(C)C [Peptide 14, Pal-RNNSRLGNGVLYASVN-NH2] (Palmitoyl-RNNSRLGNGVLYASVN-NH2) | more than ten-fold |  | 100 ± 4 | 400 ± 20 | 
CCCCCCCCCCCCCCCC(=O)N[C@@H](CC(N)=O)C(=O)N[C@@H](CC(N)=O)C(=O)N[C@@H](CO)C(=O)N[C@@H](CCCNC(=N)N)C(=O)N[C@@H](CC(C)C)C(=O)NCC(=O)N[C@@H](CC(N)=O)C(=O)NCC(=O)N[C@H](C(=O)N[C@@H](CC(C)C)C(=O)N[C@@H](Cc1ccc(O)cc1)C(N)=O)C(C)C [Peptide 15, Pal-NNSRLGNGVLY-NH2] (Palmitoyl-NNSRLGNGVLY-NH2) |  |  | 100 ± 10 | 1500 ± 50 | gradual reduction in potency
